Values quoted from earlier work in patent US11491229B2, “Medication system” (priority 2015, dated 2022).

Key:
breast tumors = conditions: mice models
[1] = test system: estrogen receptor-positive and estrogen receptor-negative breast cancer cell lines; conditions: inducing apoptosis in a concentration-dependent manner
[2] = test system: nontumorigenic mammary cells
prostate cell line, PC-3 = conditions: Ruiz et al. 1999
[3] = target: T1, androgen receptor in the prostate gland (Homo sapiens, UniProt P10275)
T1 sequence (P10275 1-920): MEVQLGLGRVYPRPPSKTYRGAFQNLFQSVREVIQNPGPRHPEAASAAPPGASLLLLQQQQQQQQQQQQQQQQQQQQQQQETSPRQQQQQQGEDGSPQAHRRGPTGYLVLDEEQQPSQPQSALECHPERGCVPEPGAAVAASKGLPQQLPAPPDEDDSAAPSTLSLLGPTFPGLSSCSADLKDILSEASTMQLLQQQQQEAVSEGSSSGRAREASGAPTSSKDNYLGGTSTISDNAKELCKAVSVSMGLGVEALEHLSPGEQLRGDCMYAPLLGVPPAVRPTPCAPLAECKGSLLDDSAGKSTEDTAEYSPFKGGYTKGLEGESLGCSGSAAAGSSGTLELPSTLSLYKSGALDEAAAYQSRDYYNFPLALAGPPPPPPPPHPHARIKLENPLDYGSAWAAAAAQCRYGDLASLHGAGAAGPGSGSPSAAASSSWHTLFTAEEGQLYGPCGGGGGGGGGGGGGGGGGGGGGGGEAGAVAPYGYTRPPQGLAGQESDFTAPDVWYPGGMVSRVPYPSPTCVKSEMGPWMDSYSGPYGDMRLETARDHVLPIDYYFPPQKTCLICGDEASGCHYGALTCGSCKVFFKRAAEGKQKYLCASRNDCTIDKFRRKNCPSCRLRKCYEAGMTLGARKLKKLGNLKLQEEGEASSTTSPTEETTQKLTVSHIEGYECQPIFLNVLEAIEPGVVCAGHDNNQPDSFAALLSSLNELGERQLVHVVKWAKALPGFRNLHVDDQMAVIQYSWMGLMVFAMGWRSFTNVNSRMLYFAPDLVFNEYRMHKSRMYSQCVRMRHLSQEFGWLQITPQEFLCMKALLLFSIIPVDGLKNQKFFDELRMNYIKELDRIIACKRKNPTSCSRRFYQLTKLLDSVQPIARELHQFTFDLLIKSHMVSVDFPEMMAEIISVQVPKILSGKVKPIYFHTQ

CB1 receptor = CB1 receptor (Homo sapiens, UniProt P21554)
[4] = not given; remark: listed apart in the source

CB1 receptor, sequence (P21554 whole entry): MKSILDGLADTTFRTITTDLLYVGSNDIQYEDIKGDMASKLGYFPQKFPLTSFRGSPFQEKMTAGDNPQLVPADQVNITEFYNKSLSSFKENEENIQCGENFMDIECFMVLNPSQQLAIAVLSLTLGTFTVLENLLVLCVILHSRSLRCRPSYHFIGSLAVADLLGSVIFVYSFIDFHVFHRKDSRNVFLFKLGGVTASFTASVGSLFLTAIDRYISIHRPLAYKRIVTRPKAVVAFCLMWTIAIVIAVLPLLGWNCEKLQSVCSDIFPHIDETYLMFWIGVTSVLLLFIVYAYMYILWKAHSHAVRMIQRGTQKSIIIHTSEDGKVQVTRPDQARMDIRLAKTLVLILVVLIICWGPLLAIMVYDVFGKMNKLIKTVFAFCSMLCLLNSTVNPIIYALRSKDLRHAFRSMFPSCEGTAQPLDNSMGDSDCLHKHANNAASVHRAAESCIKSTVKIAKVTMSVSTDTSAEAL

For `C=C(C)[C@@H]1CCC(C)=C[C@H]1c1c(O)cc(CCCCC)cc1O` [CBD, Cannabidiol], the “effect on breast tumors” value (breast tumors) is given as “shrink breast tumors, and obstruct growth and metastasis”, the “survival of breast cancer cell lines” value [1] is given as “inhibited the survival” and the “affinity to cannabinoid receptors” value (cannabinoid receptors) is given as “low affinity”. The “effect on nontumorigenic mammary cells” value [2] was “little effect”.
For `CCCCCc1cc(O)c2c(c1)OC(C)(C)[C@@H]1CCC(C)=C[C@@H]21` [THC, Tetrahydrocannabinol], the apoptosis (prostate cell line, PC-3) is given as “causes apoptosis”, the “specific binding of dihydroxytestosterone to the androgen receptor” value [3] is given as “inhibits specific binding” and the “time after administration at which pain reduction effects were felt (average)” value (cold-pressor test) is given as 180 min. For the same molecule, the pain sensitivity (cold-pressor test after administration, smoked marijuana or oral dronabinol capsules 10 mg or 20 mg) was “decreased pain sensitivity” and the duration of effects (dronabinol compared with smoked marijuana) was “lasted longer than smoked marijuana”.
In the case of `CCCc1cc(O)c2c(c1)OC(C)(C)[C@@H]1CCC(C)=C[C@@H]21` [THCV, Tetrahydrocannabivarin], the “CB1 receptor mode of action” value (CB1 receptor) is given as “antagonist”.
For vitamin E, the “reduction in breast cancer incidence” value ([4]; pre-menopausal women with a family history of breast cancer, highest quantity of vitamin E consumed) is listed as 43% and the “risk reduction of breast cancer” value ([4]; women without a family history of breast cancer) is listed as 16%.
